Here are results for 1 compound from PMC11428108 (Frontiers in Molecular Neuroscience, 2024).

One data set deals with T1, (α4)2(β2)2α4 nAChRs (Homo sapiens, UniProt P17787+P43681).
T1 construct: expressed in transfected cells
The data set can be described thus: nAChR-mediated currents in oocytes expressing (α4)2(β2)2α4 nAChRs (unpublished observations). The settings on record: pure stoichiometry. Format: cell-based. As for the experimental part: (§1) Concentration-response curves of SR9883 actions in nAChR-expressing HEK cells and oocytes were fitted to the Hill equation using a nonlinear least squares curve fit method and efficacy and potency values were calculated as previously described ([Wang et al., 2015]). Plasma and brain levels of SR9983 after oral administration were compared using a two-tailed paired t test. […] For the ICSS threshold experiment, percentages of baseline reward threshold scores were calculated by expressing the absolute threshold scores as a percentage of the scores obtained during baseline. The baseline values were the mean thresholds on the three sessions prior to drug injections. Response latency data were analyzed in the same manner as the threshold data. […] Effects of SR9883 on responding for food pellets in rats was analyzed by a two-tailed paired t test. […] Significant main or interaction effects in ANOVAs were followed by Bonferroni or Newman–Keuls post-hoc tests as appropriate. All statistical analyses were performed using GraphPad Prism software with α set to 0.05.

The nature of data set [1]: Brain penetration: plasma and brain levels 120 min after oral dosing. Format: in vivo, C57BL/6J mice. The settings on record: C57BL/6J, mouse, 20 mg kg^−1 PO. As for the experimental part: Mice prepared with intravenous catheters and treated with SR9883 via oral (10 mg kg^−1) or intravenous (1 mg kg^−1) routes of administration. Blood samples were collected up to 240 min after treatment into lithium heparin coated tubes (Ram Scientific) and stored on wet ice. Blood samples were later centrifuged for 3 min at 5,000 RPM to separate plasma from red blood cells. Plasma was collected into a fresh tube and stored at −80°C. A separate group of mice was treated with SR9883 (20 mg kg^−1 PO) and killed by cervical dislocation 120 min later. Their brains were collected and stored at −80°C. SR9883 levels were quantified in plasma and brain by mass spectrometry using an ABSciex 5,500 instrument and using multiple reaction monitoring as previously described ([Radnai et al., 2021]). Brain samples were homogenized in saline and then immediately treated with twice the amount (v:v) of acetonitrile to extract the compound. Plasma samples were directly treated with acetonitrile. Samples were filtered through a 0.2 μm filter plate prior to injection onto the LC–MS/MS as previously described ([Radnai et al., 2021]).

Data set [2] addresses T2, human (α4)2(β2)2α5 nAChRs (Homo sapiens, UniProt P17787+P30532+P43681).
T2 construct: expressed in transfected cells
The data set can be described thus: FLEXstation membrane potential assay in HEK cells stably expressing (α4)2(β2)2α5 nAChRs. Format: cell-based.
Source text: (§2) Human embryonic kidney (HEK) cell lines stably expressing human (α4)2(β2)2β2/α4 (α4β2*) nAChRs, (α4)2(β2)2α5 nAChRs, (α4)2(β2)2β3 nAChRs, (α3)2(β4)2α3/β4 (α3β4*) nAChRs, (α3)2(β2)2α3/β2 (α3β2*) nAChRs, (α3)2(β4)2α5 nAChRs, or (α3)2(β2)2α5 nAChRs were maintained as described previously ([Wang et al., 2015]; [Kuryatov et al., 2005]; [Caligiuri et al., 2022]). The FLEXstation bench top scanning fluorometer from Molecular Devices was used to assay nAChR function in these cells, according to published protocols ([Wang et al., 2015]; [Kuryatov et al., 2005]). The membrane potential kit (Molecular Devices) was used according to the manufacturer’s protocols. Serial dilutions of SR9883 were manually added to the assay plate 15 min prior to recording. […] Compound dilutions were prepared in V-shaped 96-well plates (Fisher Scientific Co.) and added to cell culture wells at a rate of 20 μL s^−1 during recording. Cells were incubated at 29°C for 6–20 h prior to assays to upregulate nAChRs ([Wang et al., 2015]; [Kuryatov et al., 2005]). Data points were averaged from 3 to 4 responses from separate wells. Potency and efficacy were calculated using the Hill equation as described previously ([Wang et al., 2015]).
as §1

Data set [3] relates to α4β2*, (α4)2(β2)2α5, and (α4)2(β2)2β3 nAChRs. The data set is described as follows: FLEXstation assay, summary over α4β2* stoichiometries with low-affinity agonist binding sites. The class given is cell-based, human. From the text:
(§3) Human embryonic kidney (HEK) cell lines stably expressing human (α4)2(β2)2β2/α4 (α4β2*) nAChRs, (α4)2(β2)2α5 nAChRs, (α4)2(β2)2β3 nAChRs, (α3)2(β4)2α3/β4 (α3β4*) nAChRs, (α3)2(β2)2α3/β2 (α3β2*) nAChRs, (α3)2(β4)2α5 nAChRs, or (α3)2(β2)2α5 nAChRs were maintained as described previously ([Wang et al., 2015]; [Kuryatov et al., 2005]; [Caligiuri et al., 2022]). The FLEXstation bench top scanning fluorometer from Molecular Devices was used to assay nAChR function in these cells, according to published protocols ([Wang et al., 2015]; [Kuryatov et al., 2005]). The membrane potential kit (Molecular Devices) was used according to the manufacturer’s protocols. Serial dilutions of SR9883 were manually added to the assay plate 15 min prior to recording. […] Potency and efficacy were calculated using the Hill equation as described previously ([Wang et al., 2015]).
(§4) Concentration-response curves of SR9883 actions in nAChR-expressing HEK cells and oocytes were fitted to the Hill equation using a nonlinear least squares curve fit method and efficacy and potency values were calculated as previously described ([Wang et al., 2015]). […] For the ICSS threshold experiment, percentages of baseline reward threshold scores were calculated by expressing the absolute threshold scores as a percentage of the scores obtained during baseline. […] Response latency data were analyzed in the same manner as the threshold data. […]

Data set [4] concerns the target T3, human (α4)2(β2)2β3 nAChRs (Homo sapiens, UniProt P17787+P43681+Q05901).
T3 construct: expressed in transfected cells
The data set is described as follows: FLEXstation membrane potential assay in HEK cells stably expressing (α4)2(β2)2β3 nAChRs. The class given is cell-based. The settings on record: ±SEM.
Source text: as §2
Concentration-response curves of SR9883 actions in nAChR-expressing HEK cells and oocytes were fitted to the Hill equation using a nonlinear least squares curve fit method and efficacy and potency values were calculated as previously described ([Wang et al., 2015]). Plasma and brain levels of SR9983 after oral administration were compared using a two-tailed paired t test. […] For the ICSS threshold experiment, percentages of baseline reward threshold scores were calculated by expressing the absolute threshold scores as a percentage of the scores obtained during baseline. The baseline values were the mean thresholds on the three sessions prior to drug injections. Response latency data were analyzed in the same manner as the threshold data. […] Effects of SR9883 on responding for food pellets in rats was analyzed by a two-tailed paired t test. […]

Data set [5] has as its target T4, human (α3)2(β2)2α5 nAChRs (Homo sapiens, UniProt P17787+P30532+P32297).
T4 construct: expressed in transfected cells
The data set is described as follows: FLEXstation membrane potential assay in HEK cells stably expressing (α3)2(β2)2α5 nAChRs. The class given is cell-based. Particulars: SR9883 0.0005–10 μM.
Source text: as §3, §4

Values joined by “and” are separate entries in the source; they are usually repeats but may differ in a detail not shown here. Equal values may be shown once. “Also recorded” adds a separate entry of the source. Read-outs that look alike come from different tables or passages of the source.

T2 sequence (P43681 29-627 limits assumed): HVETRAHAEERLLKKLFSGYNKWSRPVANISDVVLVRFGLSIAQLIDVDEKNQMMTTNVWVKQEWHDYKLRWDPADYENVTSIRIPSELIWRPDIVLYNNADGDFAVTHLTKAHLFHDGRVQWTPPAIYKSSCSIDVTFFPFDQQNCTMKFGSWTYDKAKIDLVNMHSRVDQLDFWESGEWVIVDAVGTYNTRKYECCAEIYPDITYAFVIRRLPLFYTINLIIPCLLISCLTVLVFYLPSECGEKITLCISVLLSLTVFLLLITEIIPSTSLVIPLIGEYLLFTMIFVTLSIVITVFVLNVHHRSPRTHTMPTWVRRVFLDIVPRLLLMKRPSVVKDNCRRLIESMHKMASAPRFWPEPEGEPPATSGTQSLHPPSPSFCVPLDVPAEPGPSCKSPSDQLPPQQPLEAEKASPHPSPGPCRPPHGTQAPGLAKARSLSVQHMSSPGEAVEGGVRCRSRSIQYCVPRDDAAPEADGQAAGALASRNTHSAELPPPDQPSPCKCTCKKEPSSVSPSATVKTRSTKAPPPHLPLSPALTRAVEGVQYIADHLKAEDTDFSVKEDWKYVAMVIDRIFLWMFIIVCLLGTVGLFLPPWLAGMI
T2 sequence (P17787 26-502): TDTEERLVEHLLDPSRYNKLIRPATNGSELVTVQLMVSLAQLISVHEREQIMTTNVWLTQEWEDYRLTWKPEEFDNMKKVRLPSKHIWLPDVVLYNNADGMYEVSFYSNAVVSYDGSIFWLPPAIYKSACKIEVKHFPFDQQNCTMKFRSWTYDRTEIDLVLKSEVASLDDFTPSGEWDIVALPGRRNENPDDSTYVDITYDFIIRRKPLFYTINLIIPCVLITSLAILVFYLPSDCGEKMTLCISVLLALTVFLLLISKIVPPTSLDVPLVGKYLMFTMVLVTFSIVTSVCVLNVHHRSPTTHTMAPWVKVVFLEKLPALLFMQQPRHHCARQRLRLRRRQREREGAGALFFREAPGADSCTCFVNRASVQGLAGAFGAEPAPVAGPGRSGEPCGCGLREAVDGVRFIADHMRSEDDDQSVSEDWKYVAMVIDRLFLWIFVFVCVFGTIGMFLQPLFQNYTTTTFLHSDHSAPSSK
T2 sequence (P30532 23-468): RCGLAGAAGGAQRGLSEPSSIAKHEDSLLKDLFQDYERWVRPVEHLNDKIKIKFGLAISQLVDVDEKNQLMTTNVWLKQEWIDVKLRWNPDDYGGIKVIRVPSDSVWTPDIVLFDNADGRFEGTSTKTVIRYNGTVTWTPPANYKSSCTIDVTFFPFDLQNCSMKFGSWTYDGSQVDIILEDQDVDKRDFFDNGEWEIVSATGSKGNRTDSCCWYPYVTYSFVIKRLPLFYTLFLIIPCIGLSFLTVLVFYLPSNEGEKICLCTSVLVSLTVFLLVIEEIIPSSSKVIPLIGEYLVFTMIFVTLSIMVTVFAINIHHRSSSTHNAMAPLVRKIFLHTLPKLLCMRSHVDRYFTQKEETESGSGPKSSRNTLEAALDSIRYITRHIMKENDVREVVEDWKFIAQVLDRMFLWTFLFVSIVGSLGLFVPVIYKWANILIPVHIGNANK
T3 sequence (P43681 29-627 limits assumed): as the sequence (P43681 29-627 limits assumed) above
T3 sequence (P17787 26-502): as the sequence (P17787 26-502) above
T3 sequence (Q05901 25-458 limits assumed): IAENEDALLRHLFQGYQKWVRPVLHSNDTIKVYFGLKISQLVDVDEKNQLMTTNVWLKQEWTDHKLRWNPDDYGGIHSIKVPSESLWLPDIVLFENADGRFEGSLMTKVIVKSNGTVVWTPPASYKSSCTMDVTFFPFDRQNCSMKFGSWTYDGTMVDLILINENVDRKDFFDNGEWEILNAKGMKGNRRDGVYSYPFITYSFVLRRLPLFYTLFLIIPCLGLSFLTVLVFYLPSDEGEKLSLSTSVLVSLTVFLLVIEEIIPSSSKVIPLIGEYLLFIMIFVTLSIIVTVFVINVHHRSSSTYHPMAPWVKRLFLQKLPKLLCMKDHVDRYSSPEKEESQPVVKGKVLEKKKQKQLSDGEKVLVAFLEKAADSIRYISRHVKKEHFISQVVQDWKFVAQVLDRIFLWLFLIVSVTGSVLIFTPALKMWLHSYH
T4 sequence (P32297 32-505): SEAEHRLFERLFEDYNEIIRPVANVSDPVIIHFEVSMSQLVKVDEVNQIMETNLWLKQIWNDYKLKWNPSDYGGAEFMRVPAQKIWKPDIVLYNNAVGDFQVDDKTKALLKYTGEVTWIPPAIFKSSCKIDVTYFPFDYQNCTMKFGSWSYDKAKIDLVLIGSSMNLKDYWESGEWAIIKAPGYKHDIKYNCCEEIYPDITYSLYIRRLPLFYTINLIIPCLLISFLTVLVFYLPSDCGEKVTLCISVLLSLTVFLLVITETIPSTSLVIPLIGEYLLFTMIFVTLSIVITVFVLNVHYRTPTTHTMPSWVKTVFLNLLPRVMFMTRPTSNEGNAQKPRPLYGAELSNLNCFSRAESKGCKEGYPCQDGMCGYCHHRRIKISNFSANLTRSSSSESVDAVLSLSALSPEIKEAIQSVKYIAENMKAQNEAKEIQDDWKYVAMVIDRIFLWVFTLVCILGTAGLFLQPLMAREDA
T4 sequence (P17787 26-502): as the sequence (P17787 26-502) above
T4 sequence (P30532 23-468): as the sequence (P30532 23-468) above
T1 sequence (P43681 29-627 limits assumed): as the sequence (P43681 29-627 limits assumed) above
T1 sequence (P17787 26-502): as the sequence (P17787 26-502) above

By EC50 is commonly meant the concentration that produces a half-maximal response. Consider `N#Cc1cccc(-n2nnc(-c3cccnc3)n2)c1` [SR9883, 3-(5-(pyridin-3-yl)-2H-tetrazol-2-yl)benzonitrile], for which the nAChR-mediated currents entry on (α4)2(β2)2α4 nAChRs is “enhanced nAChR-mediated currents”. Besides, the concentration at 120 min in data set [1] (brain, read-out: Brain SR9883 level) was ~4.5 µM and ~1100 ng/mL; in data set [1] (plasma, read-out: Plasma SR9883 level), ~2600 ng/mL and ~11 µM. The “Effect on maximum response to nicotine” value in data set [2] (SR9883 10 μM, nicotine 0.001–50 μM) is “no effect”. In addition, the EC50 in data set [2] (SR9883 0.0005–10 μM on response to EC20-30 nicotine, HEK cells, ±SEM) is 321 ± 98.2 nM; in data set [3] (enhancement of the effect of nicotine, read-out: EC50 values, range over stoichiometries), 200 to 400 nM; in data set [4] (SR9883 0.0005–10 μM on response to EC20-30 nicotine, HEK cells) it was 224 ± 149 nM. The nHill was determined as 0.8620 ± 0.1564 in data set [2] (SR9883 0.0005–10 μM on response to EC20-30 nicotine, ±SEM) and 0.8567 ± 0.3792 in data set [4] (SR9883 0.0005–10 μM on response to EC20-30 nicotine). Moreover, the Efficacy came out at 146.18 ± 10.93% in data set [2] (response to EC20-30 nicotine with SR9883 relative to nicotine alone, ±SEM) and 96.44 ± 15.93% in data set [4] (response to EC20-30 nicotine with SR9883 relative to nicotine alone). The “Concentration inducing maximal enhancement of nAChR signaling” value in data set [3] (EC20-30 nicotine) is on record as ~ 3 μM. Moreover, in data set [5], the “EC50 (enhancement of response to EC20-30 nicotine)” value was “no effect; also recorded: No enhancement”.
